Results as given in ChEMBL document CHEMBL3885861, “Open TG-GATES”.

Species: Rattus norvegicus
Assay: Open TG-GATES - Regimen: Single
Format: toxicity, organism-based, Sprague-Dawley
Parameters: regimen Single, gender Male, age 6 weeks
Details: in vivo, po, 1000 mg/kg, route gavage, dose level High; for APTT / Bas / Eos / Fbg / Hb / Ht / Lym / MCH / MCHC / MCV / Mono / Neu / PT / Plat / RBC / Ret / WBC: tissue Blood; for KIDNEY_L / KIDNEY_R / KIDNEY_TOTAL: tissue Kidney; for LIVER: tissue Liver; for A/G / ALP / ALT / AST / BUN / CRE / Ca / Cl / DBIL / GLC / IP / K / LDH / Na / PL / RALB / TBIL / TC / TG / TP / gamma-GTP: tissue Plasma

## CCCCNC(=O)NS(=O)(=O)c1ccc(C)cc1 [TOLBUTAMIDE]
3 h
  TERMINAL_BW: 206.8 g
  APTT: 17 s
  Bas: 0%
  Eos: 0.8%
  Fbg: 292.2 mg/dL
  Hb: 14.1 g/dL
  Ht: 43.1%
  Lym: 76.8%
  MCH: 21 pg
  MCHC: 32.6%
  MCV: 64.4 fL
  Mono: 3%
  Neu: 18.6%
  PT: 12.9 s
  Plat: 111.8 x10_4/uL
  RBC: 669.4 x10_4/ul
  Ret: 9%
  WBC: 54.6 x10_2/uL
  KIDNEY_L: 0.9 g
  KIDNEY_R: 0.9 g
  KIDNEY_TOTAL: 1.8 g
  LIVER: 9.4 g
  A/G: 0.9
  ALP: 1359.4 IU/L
  ALT: 46.8 IU/L
  AST: 77.6 IU/L
  BUN: 12.4 mg/dL
  CRE: 0.2 mg/dL
  Ca: 10.9 mg/dL
  Cl: 105.8 meq/L
  DBIL: 0.004 mg/dL
  GLC: 152 mg/dL
  IP: 9.3 mg/dL
  K: 4 meq/L
  LDH: 56.4 IU/L
  Na: 140.6 meq/L
  PL: 138.2 mg/dL
  RALB: 2.7 g/dL
  TBIL: 0.05 mg/dL
  TC: 73.6 mg/dL
  TG: 75 mg/dL
  TP: 5.6 g/dL
  gamma-GTP: 1 IU/L
6 h
  TERMINAL_BW: 203.1 g
  APTT: 16.9 s
  Bas: 0%
  Eos: 1%
  Fbg: 321.6 mg/dL
  Hb: 14.1 g/dL
  Ht: 43%
  Lym: 72%
  MCH: 21.4 pg
  MCHC: 32.7%
  MCV: 65.3 fL
  Mono: 3.4%
  Neu: 23.6%
  PT: 12.8 s
  Plat: 120.2 x10_4/uL
  RBC: 659.8 x10_4/ul
  Ret: 8.9%
  WBC: 69.4 x10_2/uL
  KIDNEY_L: 0.9 g
  KIDNEY_R: 0.9 g
  KIDNEY_TOTAL: 1.8 g
  LIVER: 8.5 g
  A/G: 0.9
  ALP: 1301 IU/L
  ALT: 39 IU/L
  AST: 70.6 IU/L
  BUN: 12.6 mg/dL
  CRE: 0.2 mg/dL
  Ca: 11 mg/dL
  Cl: 105.2 meq/L
  DBIL: 0.008 mg/dL
  GLC: 140 mg/dL
  IP: 9.8 mg/dL
  K: 3.9 meq/L
  LDH: 56 IU/L
  Na: 140.6 meq/L
  PL: 144.4 mg/dL
  RALB: 2.7 g/dL
  TBIL: 0.054 mg/dL
  TC: 79.6 mg/dL
  TG: 64.2 mg/dL
  TP: 5.7 g/dL
  gamma-GTP: 1.2 IU/L
9 h
  TERMINAL_BW: 197.9 g
  APTT: 17.7 s
  Bas: 0.2%
  Eos: 1%
  Fbg: 332.8 mg/dL
  Hb: 14.4 g/dL
  Ht: 43.7%
  Lym: 75%
  MCH: 21 pg
  MCHC: 33.1%
  MCV: 63.4 fL
  Mono: 1.8%
  Neu: 22%
  PT: 13.1 s
  Plat: 127.4 x10_4/uL
  RBC: 689.4 x10_4/ul
  Ret: 8.2%
  WBC: 56.7 x10_2/uL
  KIDNEY_L: 0.9 g
  KIDNEY_R: 0.9 g
  KIDNEY_TOTAL: 1.9 g
  LIVER: 7.8 g
  A/G: 0.9
  ALP: 1554.6 IU/L
  ALT: 38.8 IU/L
  AST: 69.8 IU/L
  BUN: 11.2 mg/dL
  CRE: 0.2 mg/dL
  Ca: 10.7 mg/dL
  Cl: 106 meq/L
  DBIL: 0.006 mg/dL
  GLC: 125.2 mg/dL
  IP: 10.4 mg/dL
  K: 3.9 meq/L
  LDH: 53.6 IU/L
  Na: 141.4 meq/L
  PL: 127 mg/dL
  RALB: 2.7 g/dL
  TBIL: 0.056 mg/dL
  TC: 66.2 mg/dL
  TG: 44.2 mg/dL
  TP: 5.8 g/dL
  gamma-GTP: 1 IU/L
24 h
  TERMINAL_BW: 213.9 g
  APTT: 16.6 s
  Bas: 0%
  Eos: 1%
  Fbg: 274 mg/dL
  Hb: 13.3 g/dL
  Ht: 41.1%
  Lym: 80%
  MCH: 21 pg
  MCHC: 32.5%
  MCV: 64.4 fL
  Mono: 3%
  Neu: 15.6%
  PT: 13.4 s
  Plat: 117.8 x10_4/uL
  RBC: 637.8 x10_4/ul
  Ret: 7.3%
  WBC: 83.8 x10_2/uL
  KIDNEY_L: 0.9 g
  KIDNEY_R: 0.9 g
  KIDNEY_TOTAL: 1.8 g
  LIVER: 9.4 g
  A/G: 0.9
  ALP: 1517.2 IU/L
  ALT: 44.2 IU/L
  AST: 75.4 IU/L
  BUN: 15.4 mg/dL
  CRE: 0.2 mg/dL
  Ca: 10.9 mg/dL
  Cl: 106.6 meq/L
  DBIL: 0.006 mg/dL
  GLC: 201.4 mg/dL
  IP: 8.4 mg/dL
  K: 3.9 meq/L
  LDH: 73.4 IU/L
  Na: 141.6 meq/L
  PL: 136.6 mg/dL
  RALB: 2.5 g/dL
  TBIL: 0.058 mg/dL
  TC: 77.2 mg/dL
  TG: 72.2 mg/dL
  TP: 5.4 g/dL
  gamma-GTP: 1 IU/L
